Earlier results, collected in paper PMC3272643 (Organic process research & development, 2012).

Tested on: peptide-cleaving proteases

## gramicidin S
  resistance to peptide-cleaving proteases: significant resistance to peptide-cleaving proteases
